The target of data set [1] is T1, His6-PA3667/CsdA (Pseudomonas aeruginosa, UniProt Q9HXX3).
T1 construct: gene csd; full length, His6 tag kept, pET24D, E. coli BL21pLysS, Ni-NTA and MonoQ; dimer (~100 kDa) by gel filtration
T1 sequence (Q9HXX3 1-401): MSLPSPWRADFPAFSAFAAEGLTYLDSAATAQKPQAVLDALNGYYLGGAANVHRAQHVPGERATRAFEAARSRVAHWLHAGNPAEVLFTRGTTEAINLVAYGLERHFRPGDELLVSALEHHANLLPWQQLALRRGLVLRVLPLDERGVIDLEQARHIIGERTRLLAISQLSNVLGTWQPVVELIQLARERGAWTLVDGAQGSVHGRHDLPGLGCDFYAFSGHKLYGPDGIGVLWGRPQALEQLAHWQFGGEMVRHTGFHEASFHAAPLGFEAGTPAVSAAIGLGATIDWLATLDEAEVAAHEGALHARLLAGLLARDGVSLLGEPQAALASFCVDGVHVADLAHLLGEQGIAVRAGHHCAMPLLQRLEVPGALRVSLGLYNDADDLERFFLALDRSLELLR
Put plainly: […] transfer to the enzyme, non-reducing SDS-PAGE with phosphorimaging. Particulars: labelled compound; 50 µM 35S Cys, 2 µM enzyme, pH 7.5, 37°C, 10 min. It counts as biochemical.

Data set [2] has as its target T1, His6-PA3667/CsdA. The data set can be described thus: absorption spectrum of purified enzyme (~[…] nm band, reducible with sodium borohydride). In kind it is binding. Particulars: 100 µM cofactor in purification and storage buffers.
Data set [3] concerns the molecule itself. The data set can be described thus: SEC; analytical gel filtration, Superose 6 column (GE Life Sciences), FPLC.

Take `N[C@@H](CS)C(=O)O` [Cys]: the “35S transfer to the enzyme, non-reducing SDS-PAGE with phosphorimaging” value at His6-PA3667/CsdA [1] is “PA3667/CsdA displayed Cys desulfurase activity and was capable of transferring”.

Take `Cc1ncc(COP(=O)(O)O)c(C=O)c1O` [pyridoxal phosphate]: the “absorption spectrum of purified enzyme (~400 nm band, reducible with sodium boro)” value on His6-PA3667/CsdA [2] is given as “absorbance spectrum of His6-PA3667/CsdA indicated that it contained a pyridoxal phosphate cofactor”.

B1: His6-PA3667/CsdA purified from E. coli (enzyme, Pseudomonas aeruginosa, UniProt Q9HXX3 1-401, looked up)
chain: T1 sequence (Q9HXX3 1-401)
notes: PA3667/CsdA, cysteine desulfurase, Pseudomonas aeruginosa; Contains a pyridoxal phosphate cofactor; 100 µM pyridoxal phosphate was added to the buffers; source: E. coli BL21pLysS (pET24D), purified (Ni2+-NTA agarose, MonoQ)
Turning to B1, the “stoichiometry N” value in data set [3] was 2.

(Values after PMC3568144, “Pseudomonas aeruginosa PA1006 Is a Persulfide-Modified Protein That Is Critical for Molybdenum Homeostasis” (PLoS ONE, 2013).)
